In patent US4409210A, “Antibiotic compound” (priority 1982, dated 1983):
*1 amine or outer side, *2 acyl side, *3 side chain or, on linkers, in order; H or OH if unused. Where a SMILES comes first, the peptide text is derived from it. Bridges are numbered along the chain shown (N, C = ends). [ ]: non-standard residue; d: D form. ξ: configuration not given here. X2 = CCCCCCCCCCCC(CC(=O)[*:1])O[*:2]; ξAsp(3ξ-OH) = NC(C(=O)O)C(O)C(=O)O; X1 = O=C(C1C(O)CCN1[*:1])[*:2]

Test system: Clindamycin-erythromycin-resistant strains of C. difficile and C. perfringens
Type: cell-based

`CCCCCCCCCCCC1CC(=O)N2CCCC2C(=O)NC(CO)C(=O)N2CCCC2C(=O)NC(CCCNC(=N)N)C(=O)NC(C(O)C(=O)O)C(=O)NC(CO)C(=O)N2CCC(O)C2C(=O)NC(C(O)C(=O)O)C(=O)O1` (stereo not shown) [Bu-2517] (PSPR[ξAsp(3ξ-OH)]S[X1][ξAsp(3ξ-OH)]; linker N-C via X2; configuration not given here) was tested, and the “concentration to which strains were susceptible” value was 1.6 to 3.1 µg/mL.
